What was measured:
[1] = Encapsulation efficiency of drug in PLA/PLGA microparticles prepared with hydroxyapatite gel (UV absorption); assay type: physicochemical; conditions: for pH of aqueous suspension giving best encapsulation efficiency: hydroxyapatite gel suspension, PLA/PLGA polymers
Method: Leuprolide acetate and poly(lactic acid-co-glycolic acid) (PLGA) RG502H or PLA R202H were dissolved in a 24/76 (v/v) methanol/dichloromethane mixture at a concentration of 20% polymer and 10% leuprolide (w/v) to prepare the polymer-drug solution. An aqueous suspension of hyroxyapatite was prepared by dissolving 6 g of CaO in 400 ml water. Then phosphoric acid was added to adjust the pH of the aqueous suspension to between 9.0 and 10.0. Hydroxyapatite gel was formed in situ in the aqueous suspension under these conditions by the reaction 10 CaO+6 H3PO4=Ca10(PO4)6(OH)2+8 H2O. The drug/polymer solution (2 or 3 ml) was dispersed into the aqueous suspension medium. The dispersion was initially homogenized by a high-shear mixer at 5,000 or more rpm for 5 minutes. The solvents were then evaporated by stirring at 600 rpm for 1 hour or longer. Then concentrated HCl was added slowly until the hydroxyapatite dissolved and the suspension cleared. Hydroxyapatite is dissolved by the reaction Ca10(PO4)6(OH)2+20 HCl=10 CaCl2+6 H3PO4+2 H2O. The solidified microparticles were recovered by centrifugation and filtration.
Encapsulation efficiency refers to the mass of drug recovered in microparticles divided by the starting mass of drug in the polymer-drug phase. To quantify drug in microparticles, the microparticles were first dissolved in an ethanol/dichloroethane (28/72 v/v) mixture. The drug content of the solution was then measured by ultraviolet absorption.
In other experiments, the pH of the suspending medium was varied. […] Small anionic and cationic small molecule drugs were also tested. […] Verapamil HCl and nicardipine HCl were the small-molecule amine-containing drugs tested. Piroxicam, […], and salicylic acid were the small molecule anionic drugs tested.

[2] = Release kinetics of leuprolide acetate from PLGA microparticles (UV absorption of supernatant); assay type: physicochemical
Method: The release kinetics of leuprolide acetate from the PLGA microparticles prepared as described herein was determined and the results are shown in FIG. 1. Concentration of drug in the supernatant was measured by ultraviolet absorption. […] Initial burst release occurs due to the fast dissolution of peptide located at the microparticle surface followed by a time lag of 4-5 days. […] During the middle portion of the curve, peptide release occurs at a near constant rate.
FIG. 2 compares the release curve of FIG. 1 for 10% RG 502H with a published release curve for leuprolide acetate from microparticles formed by conventional oil-in-water emulsion with poly(vinyl alcohol) as emulsifier (D'Souza et al., 2005, AAPS PHARM. Sci. Tech. 6(4), E553).

SMILES: CCNC(=O)[C@@H]1CCCN1C(=O)[C@H](CCCNC(=N)N)NC(=O)[C@H](CC(C)C)NC(=O)[C@@H](CC(C)C)NC(=O)[C@H](Cc1ccc(O)cc1)NC(=O)[C@H](CO)NC(=O)[C@H](Cc1c[nH]c2ccccc12)NC(=O)[C@H](Cc1c[nH]cn1)NC(=O)[C@@H]1CCC(=O)N1 [leuprolide acetate, Leuprolide acetate]
- Encapsulation efficiency ([1]; pH of the suspending medium 7.0): 90%
- Encapsulation efficiency ([1]; pH of the suspending medium pH 9.0 to pH 10.0, hydroxyapatite gel): ≥ 95%
- Release curve compared with published curve for conventional o/w emulsion (poly(vinyl alcohol)) microparticles ([2]; 10% RG 502H, FIG. 2, versus D'Souza et al. 2005): nearly identical
- Release profile (shape) ([2]; PLGA microparticles, FIG. 1): typical tri-phase
- Time lag after initial burst release ([2]; PLGA microparticles, FIG. 1): 4 to 5 days

SMILES: COc1ccc2cc([C@H](C)C(=O)O)ccc2c1 [naproxen acid]
- pH of aqueous suspension giving best encapsulation efficiency [1]: ~5.0

SMILES: CN1C(C(=O)Nc2ccccn2)=C(O)c2ccccc2S1(=O)=O [piroxicam]
- pH of aqueous suspension giving best encapsulation efficiency [1]: ~5.0

SMILES: O=C(O)c1ccccc1O [salicylic acid]
- pH of aqueous suspension giving best encapsulation efficiency [1]: ~5.0
